Legend:
[1] = Accelerated chemical stability of NBPT solutions at 50 °C, HPLC; details: 45 days at 50±1° C.
[2] = in vivo; cited from earlier work
[3] = Dynamic viscosity of protic solvents with DMSO vs. NMP co-solvent (Brookfield viscometer); assay type: physicochemical; details: 21° C.; in propylene glycol, glycerin, MIPA
Excerpt: Dynamic viscosity measurements were collected for propylene glycol, glycerin, and a representative alkanolamine (monoisopropanolamine, MIPA) with increasing levels of DMSO and NMP. A Brookfield LVDV-E digital rotational viscometer with LVDV-E spindle set (Brookfield Engineering Labs, Inc., Middleboro, Mass.) was employed for this work and was calibrated using Cannon […] general purpose, synthetic base oil viscosity calibration standard solution (Cannon Instrument Company, State College, PA). The sampling was conducted at 21° C.

[4] = in vivo; cited from earlier work; remark: listed apart in the source
[5] = Maximum Allowable Dosage Level per day (California Proposition 65); cited from earlier work
[6] = 25° C.; cited from earlier work

CCCCNP(N)(N)=S [NBPT, N-(n-butyl) thiophosphoric triamide]
NBPT deterioration at elevated temperature ([1]; solution of example 4: 50% PG, 25% DMSO, 25% NBPT): did not have significant deterioration | NBPT deterioration at elevated temperature ([1]; solution of example 6: 35% PG, 40% DMSO, 25% NBPT): did not have significant deterioration | NBPT deterioration at elevated temperature ([1]; solution of example 8: 20% PG, 40% DMSO, 40% NBPT): did not have significant deterioration | NBPT deterioration at elevated temperature ([1]; solution of example 10: 48.5% glycerine, 1.5% methanol, 25% DMSO, 25% NBPT): did not have significant deterioration | NBPT deterioration at elevated temperature ([1]; solution of example 12: 33.5% glycerine, 1.5% methanol, 25% DMSO, 40% NBPT): did not have significant deterioration

C[S+](C)[O-] [Dimethyl sulfoxide, dimethyl sulfoxide]
Oral LD-50 [2]: 14,500-28,300 | reducing the viscosity of viscous formulations, DMSO vs. NMP [3]: virtually no difference | Dermal LD-50 [4]: 40,000 | Inhalation toxicity (MADL) [5]: None established

CN1CCCC1=O [N-methyl pyrrolidone, reference compound]
Oral LD-50 [2]: 3,914 | Dermal LD-50 [4]: 8,000 | Inhalation toxicity (MADL) [5]: 3200 µg/day

CC(O)CO (stereo not shown) [propylene glycol]
dynamic viscosity [6]: 48.8 centipoise
